From US9758561B2 (priority 2014, dated 2017) come the findings set out here.

The EC50 is the concentration giving half of the maximal effect.

This experiment concerns the target T1, human GLP-1 receptor (Homo sapiens, UniProt P43220).
T1 construct: expressed in transfected cells; host or cells: HEK-293
Briefly: cAMP response of HEK-293 cells stably expressing human GLP-1 receptor (HTRF). As to conditions: Table 6; read-out: EC50 hGLP-1R. The format is cell-based. The protocol:
For preparation, cells were split into T175 culture flasks and grown overnight to near confluency in medium (DMEM/10% FBS). Medium was then removed and cells washed with PBS lacking calcium and magnesium, followed by proteinase treatment with accutase (Sigma-Aldrich cat. no. A6964). Detached cells were washed and resuspended in assay buffer (1×HBSS; 20 mM HEPES, 0.1% BSA, 2 mM IBMX) and cellular density determined. They were then diluted to 400000 cells/ml and 25 μl-aliquots dispensed into the wells of 96-well plates. For measurement, 25 μl of test compound in assay buffer was added to the wells, followed by incubation for 30 minutes at room temperature. […] Potencies of peptidic compounds at the GLP-1, glucagon and GIP receptors were determined by exposing cells expressing human glucagon receptor (hGlucagon R), human GIP receptor (hGIP-R) or human GLP-1 receptor (hGLP-1R) to the listed compounds at increasing concentrations and measuring the formed cAMP as described in Methods.
On the technique in general: In TR-FRET formats the signal depends on donor and acceptor labels being close together.

T1 sequence (P43220 24-463): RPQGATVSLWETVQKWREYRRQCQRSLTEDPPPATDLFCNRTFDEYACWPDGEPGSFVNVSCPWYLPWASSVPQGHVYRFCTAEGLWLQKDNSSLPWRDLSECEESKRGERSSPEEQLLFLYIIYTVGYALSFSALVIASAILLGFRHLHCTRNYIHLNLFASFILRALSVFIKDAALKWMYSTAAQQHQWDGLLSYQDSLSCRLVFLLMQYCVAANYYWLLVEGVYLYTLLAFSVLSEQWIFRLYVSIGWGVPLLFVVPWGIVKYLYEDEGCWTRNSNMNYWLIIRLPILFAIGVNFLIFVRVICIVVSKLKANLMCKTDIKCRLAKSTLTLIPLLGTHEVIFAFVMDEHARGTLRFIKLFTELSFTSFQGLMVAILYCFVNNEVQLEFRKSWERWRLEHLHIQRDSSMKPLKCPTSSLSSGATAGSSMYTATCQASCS

For `CCCCCCCCCCCCCCCCCC(=O)N[C@@H](CCC(=O)NCCCC[C@H](NC(=O)[C@H](CCC(N)=O)NC(=O)[C@H](CCCCN)NC(=O)[C@H](CO)NC(=O)[C@H](CC(C)C)NC(=O)[C@H](CC(=O)O)NC(=O)[C@H](CO)NC(=O)[C@@H](NC(=O)[C@H](Cc1ccccc1)NC(=O)[C@@H](NC(=O)CNC(=O)[C@H](Cc1c[nH]cn1)NC(=O)[C@@H](CO)NC(=O)[C@@H](N)Cc1c[nH]cn1)[C@@H](C)O)[C@@H](C)O)C(=O)N[C@@H](CC(=O)O)C(=O)N[C@@H](CCC(=O)O)C(=O)N[C@@H](CCC(=O)O)C(=O)N[C@@H](C)C(=O)N[C@@H](C)C(=O)N[C@@H](CCCNC(=N)N)C(=O)N[C@@H](CC(C)C)C(=O)N[C@@H](Cc1ccccc1)C(=O)N[C@H](C(=O)N[C@@H](CCC(=O)O)C(=O)N[C@@H](Cc1c[nH]c2ccccc12)C(=O)N[C@@H](CC(C)C)C(=O)NC(C)(C)C(=O)N[C@@H](C)C(=O)NCC(=O)NCC(=O)N1CCC[C@H]1C(=O)N[C@@H](CO)C(=O)N[C@@H](CO)C(=O)NCC(=O)N[C@@H](C)C(=O)N1CCC[C@H]1C(=O)N1CCC[C@H]1C(=O)N1CCC[C@H]1C(=O)N[C@@H](CO)C(N)=O)[C@@H](C)CC)C(=O)O` [SEQ ID NO: 8, H-dSer-H-G-T-F-T-S-D-L-S-K-Q-K(γE-x70)-D-E-E-A-A-R-L-F-I-E-W-L-Aib-A-G-G-P-S-S-G-A-P-P-P-S-NH2], the EC50 was determined as 1.8 pM.
To `CCCCCCCCCCCCCCCC(=O)N[C@@H](CCC(=O)N[C@@H](CCC(=O)NCCCC[C@H](NC(=O)[C@H](CCC(N)=O)NC(=O)[C@H](CCCCN)NC(=O)[C@H](CO)NC(=O)[C@H](CC(C)C)NC(=O)[C@H](CC(=O)O)NC(=O)[C@H](CO)NC(=O)[C@@H](NC(=O)[C@H](Cc1ccccc1)NC(=O)[C@@H](NC(=O)CNC(=O)[C@H](CCC(N)=O)NC(=O)[C@@H](CO)NC(=O)[C@@H](N)Cc1c[nH]cn1)[C@@H](C)O)[C@@H](C)O)C(=O)N[C@@H](CC(=O)O)C(=O)N[C@@H](CCC(=O)O)C(=O)N[C@@H](CCC(=O)O)C(=O)N[C@@H](C)C(=O)N[C@@H](C)C(=O)N[C@@H](CCCNC(=N)N)C(=O)N[C@@H](CC(C)C)C(=O)N[C@@H](Cc1ccccc1)C(=O)N[C@H](C(=O)N[C@@H](CCC(=O)O)C(=O)N[C@@H](Cc1c[nH]c2ccccc12)C(=O)N[C@@H](CC(C)C)C(=O)NC(C)(C)C(=O)N[C@@H](CO)C(=O)NCC(=O)NCC(=O)N1CCC[C@H]1C(=O)N[C@@H](CO)C(=O)N[C@@H](CO)C(=O)NCC(=O)N[C@@H](C)C(=O)N1CCC[C@H]1C(=O)N1CCC[C@H]1C(=O)N1CCC[C@H]1C(=O)N[C@@H](CO)C(N)=O)[C@@H](C)CC)C(=O)O)C(=O)O` [SEQ ID NO: 15, H-dSer-Q-G-T-F-T-S-D-L-S-K-Q-K(γE-γE-x53)-D-E-E-A-A-R-L-F-I-E-W-L-Aib-S-G-G-P-S-S-G-A-P-P-P-S-NH2] belongs 1.8 pM.
The value for `CCCCCCCCCCCCCCCC(=O)N[C@@H](CCC(=O)N[C@@H](CCC(=O)NCCCC[C@H](NC(=O)[C@H](CCC(N)=O)NC(=O)[C@H](CCCCN)NC(=O)[C@H](CO)NC(=O)[C@H](CC(C)C)NC(=O)[C@H](CC(=O)O)NC(=O)[C@H](CO)NC(=O)[C@@H](NC(=O)[C@H](Cc1ccccc1)NC(=O)[C@@H](NC(=O)CNC(=O)[C@H](CCC(N)=O)NC(=O)[C@@H](CO)NC(=O)[C@@H](N)Cc1c[nH]cn1)[C@@H](C)O)[C@@H](C)O)C(=O)N[C@@H](CC(=O)O)C(=O)N[C@@H](CCC(=O)O)C(=O)N[C@@H](CCC(=O)O)C(=O)N[C@@H](C)C(=O)N[C@H](C(=O)N[C@@H](CCCNC(=N)N)C(=O)N[C@@H](CC(C)C)C(=O)N[C@@H](Cc1ccccc1)C(=O)N[C@H](C(=O)N[C@@H](CCC(=O)O)C(=O)N[C@@H](Cc1c[nH]c2ccccc12)C(=O)N[C@@H](CC(C)C)C(=O)NC(C)(C)C(=O)N[C@@H](C)C(=O)NCC(=O)NCC(=O)N1CCC[C@H]1C(=O)N[C@@H](CO)C(=O)N[C@@H](CO)C(=O)NCC(=O)N[C@@H](C)C(=O)N1CCC[C@H]1C(=O)N1CCC[C@H]1C(=O)N1CCC[C@H]1C(=O)N[C@@H](CO)C(N)=O)[C@@H](C)CC)C(C)C)C(=O)O)C(=O)O` [SEQ ID NO: 17, H-dSer-Q-G-T-F-T-S-D-L-S-K-Q-K(γE-γE-x53)-D-E-E-A-V-R-L-F-I-E-W-L-Aib-A-G-G-P-S-S-G-A-P-P-P-S-NH2] was 2.4 pM.
The value for `CCCCCCCCCCCCCCCCCC(=O)N[C@@H](CCC(=O)NCCOCCOCC(=O)NCCOCCOCC(=O)NCCCC[C@H](NC(=O)[C@H](CCC(N)=O)NC(=O)[C@H](CCCCN)NC(=O)[C@H](CO)NC(=O)[C@H](CC(C)C)NC(=O)[C@H](CC(=O)O)NC(=O)[C@H](CO)NC(=O)[C@@H](NC(=O)[C@H](Cc1ccccc1)NC(=O)[C@@H](NC(=O)CNC(=O)[C@H](CCC(N)=O)NC(=O)[C@@H](CO)NC(=O)[C@@H](N)Cc1c[nH]cn1)[C@@H](C)O)[C@@H](C)O)C(=O)N[C@@H](CC(=O)O)C(=O)N[C@@H](CCC(=O)O)C(=O)N[C@@H](CCC(=O)O)C(=O)N[C@@H](C)C(=O)N[C@@H](C)C(=O)N[C@@H](CCCNC(=N)N)C(=O)N[C@@H](CC(C)C)C(=O)N[C@@H](Cc1ccccc1)C(=O)N[C@H](C(=O)N[C@@H](CCC(=O)O)C(=O)N[C@@H](Cc1c[nH]c2ccccc12)C(=O)N[C@@H](CC(C)C)C(=O)NC(C)(C)C(=O)N[C@@H](C)C(=O)NCC(=O)NCC(=O)N1CCC[C@H]1C(=O)N[C@@H](CO)C(=O)N[C@@H](CO)C(=O)NCC(=O)N[C@@H](C)C(=O)N1CCC[C@H]1C(=O)N1CCC[C@H]1C(=O)N1CCC[C@H]1C(=O)N[C@@H](CO)C(N)=O)[C@@H](C)CC)C(=O)O` [SEQ ID NO: 21, H-dSer-Q-G-T-F-T-S-D-L-S-K-Q-K(AEEAc-AEEAc- E-x70)-D-E-E-A-A-R-L-F-I-E-W-L-Aib-A-G-G-P-S-S-G-A-P-P-P-S-NH2] was 1 pM; that for `CCCCCCCCCCCCCCCCCC(=O)NCCOCCOCC(=O)NCCOCCOCC(=O)NCCOCCOCC(=O)NCCCC[C@H](NC(=O)[C@H](CCC(N)=O)NC(=O)[C@H](CCCCN)NC(=O)[C@H](CO)NC(=O)[C@H](CC(C)C)NC(=O)[C@H](CC(=O)O)NC(=O)[C@H](CO)NC(=O)[C@@H](NC(=O)[C@H](Cc1ccccc1)NC(=O)[C@@H](NC(=O)CNC(=O)[C@H](CCC(N)=O)NC(=O)[C@@H](CO)NC(=O)[C@@H](N)Cc1c[nH]cn1)[C@@H](C)O)[C@@H](C)O)C(=O)N[C@@H](CC(=O)O)C(=O)N[C@@H](CCC(=O)O)C(=O)N[C@@H](CCC(=O)O)C(=O)N[C@@H](C)C(=O)N[C@@H](C)C(=O)N[C@@H](CCCNC(=N)N)C(=O)N[C@@H](CC(C)C)C(=O)N[C@@H](Cc1ccccc1)C(=O)N[C@H](C(=O)N[C@@H](CCC(=O)O)C(=O)N[C@@H](Cc1c[nH]c2ccccc12)C(=O)N[C@@H](CC(C)C)C(=O)NC(C)(C)C(=O)N[C@@H](C)C(=O)NCC(=O)NCC(=O)N1CCC[C@H]1C(=O)N[C@@H](CO)C(=O)N[C@@H](CO)C(=O)NCC(=O)N[C@@H](C)C(=O)N1CCC[C@H]1C(=O)N1CCC[C@H]1C(=O)N1CCC[C@H]1C(=O)N[C@@H](CO)C(N)=O)[C@@H](C)CC` [SEQ ID NO: 22, H-dSer-Q-G-T-F-T-S-D-L-S-K-Q-K(AEEAc-AEEAc-AEEAc-x70)-D-E-E-A-A-R-L-F-I-E-W-L-Aib-A-G-G-P-S-S-G-A-P-P-P-S-NH2] was 1.8 pM.
